According to ChEMBL document CHEMBL1697731, “Cheminformatics analysis of assertions mined from literature that describe drug-induced liver injury in different species” (Chem Res Toxicol, 2010):
Where a SMILES comes first, the peptide text is derived from it. Bridges are numbered along the chain shown (N, C = ends). [ ]: non-standard residue; d: D form. The star is where a group is joined. Ileψ(thiazoline)Cys = CC[C@H](C)[C@H](N)C1=N[C@H](C(=O)*)CS1; dOrn = NCCC[C@@H](N)C(=O)O

Tests used:
Hepatotoxicity [1] = test: Literature-mined compound from Fourches et al multi-species drug-induced liver injury (DILI) dataset, effect in rodents; conditions: rodentia
Hepatotoxicity [2] = test: Literature-mined compound from Fourches et al multi-species drug-induced liver injury (DILI) dataset, effect in non-rodents
Hepatotoxicity [3] = test: Literature-mined compound from Fourches et al multi-species drug-induced liver injury (DILI) dataset, effect in humans; conditions: human

For C=C[C@H]1C[N@@]2CC[C@H]1C[C@@H]2[C@@H](O)c1ccnc2ccc(OC)cc12 [QUINIDINE], the Hepatotoxicity (Hepatotoxicity [1]) was “drug-induced liver injury reported”, the Hepatotoxicity (Hepatotoxicity [2]) was “no drug-induced liver injury reported” and the Hepatotoxicity (Hepatotoxicity [3]) was “drug-induced liver injury reported”.
O=C(O)c1cc(=O)[nH]c(=O)[nH]1 [OROTIC ACID] was tested, and the Hepatotoxicity (Hepatotoxicity [1]) was “drug-induced liver injury reported”, the Hepatotoxicity (Hepatotoxicity [2]) was “no drug-induced liver injury reported” and the Hepatotoxicity (Hepatotoxicity [3]) was “no drug-induced liver injury reported”.
Cc1ccc(C(=O)C(C)CN2CCCCC2)cc1 (stereo not drawn) [TOLPERISONE] was tested, and the Hepatotoxicity (Hepatotoxicity [1]) was “no drug-induced liver injury reported”, the Hepatotoxicity (Hepatotoxicity [2]) was “no drug-induced liver injury reported” and the Hepatotoxicity (Hepatotoxicity [3]) was “drug-induced liver injury reported”.
With CCOC(=O)[N-]c1cn(N2CCOCC2)n[o+]1 [MOLSIDOMINE] the Hepatotoxicity (Hepatotoxicity [1]) was “drug-induced liver injury reported”, the Hepatotoxicity (Hepatotoxicity [2]) was “no drug-induced liver injury reported” and the Hepatotoxicity (Hepatotoxicity [3]) was “drug-induced liver injury reported”.
For NC(=O)N1c2ccccc2C=Cc2ccccc21 [CARBAMAZEPINE], the Hepatotoxicity (Hepatotoxicity [1]) was “drug-induced liver injury reported”, the Hepatotoxicity (Hepatotoxicity [2]) was “no drug-induced liver injury reported” and the Hepatotoxicity (Hepatotoxicity [3]) was “drug-induced liver injury reported”.
For Nc1ccn([C@@H]2CS[C@H](CO)O2)c(=O)n1 [LAMIVUDINE], the Hepatotoxicity (Hepatotoxicity [1]) was “drug-induced liver injury reported”, the Hepatotoxicity (Hepatotoxicity [2]) was “no drug-induced liver injury reported” and the Hepatotoxicity (Hepatotoxicity [3]) was “drug-induced liver injury reported”.
For CC[C@H](C)[C@H](N)C1=N[C@H](C(=O)N[C@@H](CC(C)C)C(=O)N[C@H](CCC(=O)O)C(=O)N[C@H](C(=O)N[C@H]2CCCCNC(=O)[C@H](CC(N)=O)NC(=O)[C@@H](CC(=O)O)NC(=O)[C@H](Cc3cnc[nH]3)NC(=O)[C@@H](Cc3ccccc3)NC(=O)[C@H]([C@@H](C)CC)NC(=O)[C@@H](CCCN)NC2=O)[C@@H](C)CC)CS1 [BACITRACIN] ({Ileψ(thiazoline)Cys}-L[dE]IK[dOrn]I[dF]H[dD]N; lactam 4-C), the Hepatotoxicity (Hepatotoxicity [1]) was “drug-induced liver injury reported”, the Hepatotoxicity (Hepatotoxicity [2]) was “no drug-induced liver injury reported” and the Hepatotoxicity (Hepatotoxicity [3]) was “no drug-induced liver injury reported”.
In the case of O=C(O)Cc1cc(I)c(Oc2ccc(O)c(I)c2)c(I)c1 [TIRATRICOL], the Hepatotoxicity (Hepatotoxicity [1]) is reported as “drug-induced liver injury reported”, the Hepatotoxicity (Hepatotoxicity [2]) is reported as “no drug-induced liver injury reported” and the Hepatotoxicity (Hepatotoxicity [3]) is reported as “no drug-induced liver injury reported”.
In the case of C=C1[C@H](CO)[C@@H](O)C[C@@H]1n1cnc2c(=O)[nH]c(N)nc21.O, the Hepatotoxicity (Hepatotoxicity [1]) is reported as “no drug-induced liver injury reported”, the Hepatotoxicity (Hepatotoxicity [2]) is reported as “no drug-induced liver injury reported” and the Hepatotoxicity (Hepatotoxicity [3]) is reported as “drug-induced liver injury reported”.
For COCc1c(C(C)C)nc(C(C)C)c(/C=C/[C@@H](O)C[C@@H](O)CC(=O)O)c1-c1ccc(F)cc1 [CERIVASTATIN], the Hepatotoxicity (Hepatotoxicity [1]) was “drug-induced liver injury reported”, the Hepatotoxicity (Hepatotoxicity [2]) was “drug-induced liver injury reported” and the Hepatotoxicity (Hepatotoxicity [3]) was “drug-induced liver injury reported”.
CC(Cc1ccc(O)c(O)c1)C(C)Cc1ccc(O)c(O)c1 (stereo not drawn) [NORDIHYDROGUAIARETIC ACID] was tested, and the Hepatotoxicity (Hepatotoxicity [1]) was “drug-induced liver injury reported”, the Hepatotoxicity (Hepatotoxicity [2]) was “no drug-induced liver injury reported” and the Hepatotoxicity (Hepatotoxicity [3]) was “drug-induced liver injury reported”.
In the case of C=CCN1CC[C@]23c4c5ccc(O)c4O[C@H]2C(=O)CC[C@@]3(O)[C@H]1C5 [NALOXONE], the Hepatotoxicity (Hepatotoxicity [1]) is reported as “drug-induced liver injury reported”, the Hepatotoxicity (Hepatotoxicity [2]) is reported as “no drug-induced liver injury reported” and the Hepatotoxicity (Hepatotoxicity [3]) is reported as “no drug-induced liver injury reported”.
With CO[C@H](C(=O)[C@@H](O)[C@@H](C)O)[C@@H]1Cc2cc3cc(O[C@H]4C[C@@H](O[C@H]5C[C@@H](O)[C@H](O)[C@@H](C)O5)[C@H](O)[C@@H](C)O4)c(C)c(O)c3c(O)c2C(=O)[C@H]1O[C@H]1C[C@@H](O[C@H]2C[C@@H](O[C@H]3C[C@](C)(O)[C@H](O)[C@@H](C)O3)[C@@H](O)[C@@H](C)O2)[C@H](O)[C@@H](C)O1 [PLICAMYCIN] the Hepatotoxicity (Hepatotoxicity [1]) was “drug-induced liver injury reported”, the Hepatotoxicity (Hepatotoxicity [2]) was “no drug-induced liver injury reported” and the Hepatotoxicity (Hepatotoxicity [3]) was “drug-induced liver injury reported”.
CN(C)[C@@H]1C(O)=C(C(N)=O)C(=O)[C@@]2(O)C(O)=C3C(=O)c4c(O)cccc4[C@@](C)(O)[C@H]3[C@H](O)[C@@H]12 [OXYTETRACYCLINE] was tested, and the Hepatotoxicity (Hepatotoxicity [1]) was “drug-induced liver injury reported”, the Hepatotoxicity (Hepatotoxicity [2]) was “no drug-induced liver injury reported” and the Hepatotoxicity (Hepatotoxicity [3]) was “no drug-induced liver injury reported”.
For Cc1nnc2n1-c1sc(Br)cc1C(c1ccccc1Cl)=NC2 [BROTIZOLAM], the Hepatotoxicity (Hepatotoxicity [1]) was “drug-induced liver injury reported”, the Hepatotoxicity (Hepatotoxicity [2]) was “no drug-induced liver injury reported” and the Hepatotoxicity (Hepatotoxicity [3]) was “no drug-induced liver injury reported”.
In the case of CC(=O)CCCCn1c(=O)c2c(ncn2C)n(C)c1=O [PENTOXIFYLLINE], the Hepatotoxicity (Hepatotoxicity [1]) is reported as “drug-induced liver injury reported”, the Hepatotoxicity (Hepatotoxicity [2]) is reported as “drug-induced liver injury reported” and the Hepatotoxicity (Hepatotoxicity [3]) is reported as “drug-induced liver injury reported”.
For C[C@]12COC(=O)C[C@@H]1CC[C@@H]1[C@@H]2CC[C@@]2(C)[C@H]1CC[C@]2(C)O [OXANDROLONE], the Hepatotoxicity (Hepatotoxicity [1]) was “drug-induced liver injury reported”, the Hepatotoxicity (Hepatotoxicity [2]) was “no drug-induced liver injury reported” and the Hepatotoxicity (Hepatotoxicity [3]) was “no drug-induced liver injury reported”.
With CC1=C(/C=C/C(C)=C/C=C/C(C)=C/C=C/C=C(C)/C=C/C=C(C)/C=C/C2=C(C)CCCC2(C)C)C(C)(C)CCC1 [BETA CAROTENE] the Hepatotoxicity (Hepatotoxicity [1]) was “drug-induced liver injury reported”, the Hepatotoxicity (Hepatotoxicity [2]) was “drug-induced liver injury reported” and the Hepatotoxicity (Hepatotoxicity [3]) was “drug-induced liver injury reported”.
For Cc1ncc2n1-c1ccc(Cl)cc1C(c1ccccc1F)=NC2 [MIDAZOLAM], the Hepatotoxicity (Hepatotoxicity [1]) was “drug-induced liver injury reported”, the Hepatotoxicity (Hepatotoxicity [2]) was “no drug-induced liver injury reported” and the Hepatotoxicity (Hepatotoxicity [3]) was “no drug-induced liver injury reported”.
With C/C(=C\c1csc(C)n1)[C@@H]1C[C@@H]2O[C@]2(C)CCC[C@H](C)[C@H](O)[C@@H](C)C(=O)C(C)(C)[C@@H](O)CC(=O)N1 [IXABEPILONE] the Hepatotoxicity (Hepatotoxicity [1]) was “no drug-induced liver injury reported”, the Hepatotoxicity (Hepatotoxicity [2]) was “no drug-induced liver injury reported” and the Hepatotoxicity (Hepatotoxicity [3]) was “drug-induced liver injury reported”.
For CC1=CC(=O)c2ccccc2C1=O [MENADIONE], the Hepatotoxicity (Hepatotoxicity [1]) was “drug-induced liver injury reported”, the Hepatotoxicity (Hepatotoxicity [2]) was “drug-induced liver injury reported” and the Hepatotoxicity (Hepatotoxicity [3]) was “drug-induced liver injury reported”.
In the case of COCCCC/C(=N\OCCN)c1ccc(C(F)(F)F)cc1 [FLUVOXAMINE], the Hepatotoxicity (Hepatotoxicity [1]) is reported as “drug-induced liver injury reported”, the Hepatotoxicity (Hepatotoxicity [2]) is reported as “no drug-induced liver injury reported” and the Hepatotoxicity (Hepatotoxicity [3]) is reported as “drug-induced liver injury reported”.
NCCCC(N)(C(=O)O)C(F)F (stereo not drawn) [EFLORNITHINE] was tested, and the Hepatotoxicity (Hepatotoxicity [1]) was “drug-induced liver injury reported”, the Hepatotoxicity (Hepatotoxicity [2]) was “no drug-induced liver injury reported” and the Hepatotoxicity (Hepatotoxicity [3]) was “no drug-induced liver injury reported”.
In the case of Oc1c(I)cc(Cl)c2cccnc12 [CLIOQUINOL], the Hepatotoxicity (Hepatotoxicity [1]) is reported as “drug-induced liver injury reported”, the Hepatotoxicity (Hepatotoxicity [2]) is reported as “no drug-induced liver injury reported” and the Hepatotoxicity (Hepatotoxicity [3]) is reported as “no drug-induced liver injury reported”.
COc1cc(NS(C)(=O)=O)ccc1Nc1c2ccccc2nc2ccccc12 [AMSACRINE] was tested, and the Hepatotoxicity (Hepatotoxicity [1]) was “no drug-induced liver injury reported”, the Hepatotoxicity (Hepatotoxicity [2]) was “no drug-induced liver injury reported” and the Hepatotoxicity (Hepatotoxicity [3]) was “drug-induced liver injury reported”.
CO[C@@]1(NC(=O)C2SC(=C(C(N)=O)C(=O)O)S2)C(=O)N2C(C(=O)O)=C(CSc3nnnn3C)CS[C@@H]21 (stereo partly drawn) [CEFOTETAN] was tested, and the Hepatotoxicity (Hepatotoxicity [1]) was “no drug-induced liver injury reported”, the Hepatotoxicity (Hepatotoxicity [2]) was “no drug-induced liver injury reported” and the Hepatotoxicity (Hepatotoxicity [3]) was “drug-induced liver injury reported”.
Cc1ccc(C)c(OCCCC(C)(C)C(=O)O)c1 [GEMFIBROZIL] was tested, and the Hepatotoxicity (Hepatotoxicity [1]) was “drug-induced liver injury reported”, the Hepatotoxicity (Hepatotoxicity [2]) was “no drug-induced liver injury reported” and the Hepatotoxicity (Hepatotoxicity [3]) was “drug-induced liver injury reported”.
COc1c2occc2c(OC)c2c(=O)cc(C)oc12 [KHELLIN] was tested, and the Hepatotoxicity (Hepatotoxicity [1]) was “drug-induced liver injury reported”, the Hepatotoxicity (Hepatotoxicity [2]) was “no drug-induced liver injury reported” and the Hepatotoxicity (Hepatotoxicity [3]) was “no drug-induced liver injury reported”.
For NC(=O)C[S+]([O-])C(c1ccccc1)c1ccccc1 (stereo not drawn) [MODAFINIL], the Hepatotoxicity (Hepatotoxicity [1]) was “no drug-induced liver injury reported”, the Hepatotoxicity (Hepatotoxicity [2]) was “no drug-induced liver injury reported” and the Hepatotoxicity (Hepatotoxicity [3]) was “drug-induced liver injury reported”.
With BLEOMYCIN the Hepatotoxicity (Hepatotoxicity [1]) was “drug-induced liver injury reported”, the Hepatotoxicity (Hepatotoxicity [2]) was “no drug-induced liver injury reported” and the Hepatotoxicity (Hepatotoxicity [3]) was “drug-induced liver injury reported”.
In the case of CS(=O)(=O)OCCCCOS(C)(=O)=O [BUSULFAN], the Hepatotoxicity (Hepatotoxicity [1]) is reported as “drug-induced liver injury reported”, the Hepatotoxicity (Hepatotoxicity [2]) is reported as “no drug-induced liver injury reported” and the Hepatotoxicity (Hepatotoxicity [3]) is reported as “drug-induced liver injury reported”.
In the case of CCOC(=O)c1cncn1[C@H](C)c1ccccc1 [ETOMIDATE], the Hepatotoxicity (Hepatotoxicity [1]) is reported as “drug-induced liver injury reported”, the Hepatotoxicity (Hepatotoxicity [2]) is reported as “no drug-induced liver injury reported” and the Hepatotoxicity (Hepatotoxicity [3]) is reported as “drug-induced liver injury reported”.
O=C(O)/C=C/c1ccc(Cn2ccnc2)cc1 [OZAGREL] was tested, and the Hepatotoxicity (Hepatotoxicity [1]) was “drug-induced liver injury reported”, the Hepatotoxicity (Hepatotoxicity [2]) was “no drug-induced liver injury reported” and the Hepatotoxicity (Hepatotoxicity [3]) was “no drug-induced liver injury reported”.
For CC(N)=O [ACETAMIDE], the Hepatotoxicity (Hepatotoxicity [1]) was “drug-induced liver injury reported”, the Hepatotoxicity (Hepatotoxicity [2]) was “no drug-induced liver injury reported” and the Hepatotoxicity (Hepatotoxicity [3]) was “no drug-induced liver injury reported”.
For O=C([O-])CCCc1ccccc1.[Na+] [SODIUM PHENYLBUTYRATE], the Hepatotoxicity (Hepatotoxicity [1]) was “no drug-induced liver injury reported”, the Hepatotoxicity (Hepatotoxicity [2]) was “no drug-induced liver injury reported” and the Hepatotoxicity (Hepatotoxicity [3]) was “drug-induced liver injury reported”.
With C=C1/C(=C\C=C2/CCC[C@]3(C)[C@@H]([C@H](C)/C=C/C=C/C(O)(CC)CC)CC[C@@H]23)C[C@@H](O)C[C@@H]1O [SEOCALCITOL] the Hepatotoxicity (Hepatotoxicity [1]) was “no drug-induced liver injury reported”, the Hepatotoxicity (Hepatotoxicity [2]) was “no drug-induced liver injury reported” and the Hepatotoxicity (Hepatotoxicity [3]) was “drug-induced liver injury reported”.
